In assay [1] the target is T1, binding between IKKβ and full-length Regnase-1 (FL_Reg1) (Homo sapiens, UniProt Q5D1E8).
T1 construct: made in house; host or cells: Expi293 cells
T1 sequence (Q5D1E8 1-599): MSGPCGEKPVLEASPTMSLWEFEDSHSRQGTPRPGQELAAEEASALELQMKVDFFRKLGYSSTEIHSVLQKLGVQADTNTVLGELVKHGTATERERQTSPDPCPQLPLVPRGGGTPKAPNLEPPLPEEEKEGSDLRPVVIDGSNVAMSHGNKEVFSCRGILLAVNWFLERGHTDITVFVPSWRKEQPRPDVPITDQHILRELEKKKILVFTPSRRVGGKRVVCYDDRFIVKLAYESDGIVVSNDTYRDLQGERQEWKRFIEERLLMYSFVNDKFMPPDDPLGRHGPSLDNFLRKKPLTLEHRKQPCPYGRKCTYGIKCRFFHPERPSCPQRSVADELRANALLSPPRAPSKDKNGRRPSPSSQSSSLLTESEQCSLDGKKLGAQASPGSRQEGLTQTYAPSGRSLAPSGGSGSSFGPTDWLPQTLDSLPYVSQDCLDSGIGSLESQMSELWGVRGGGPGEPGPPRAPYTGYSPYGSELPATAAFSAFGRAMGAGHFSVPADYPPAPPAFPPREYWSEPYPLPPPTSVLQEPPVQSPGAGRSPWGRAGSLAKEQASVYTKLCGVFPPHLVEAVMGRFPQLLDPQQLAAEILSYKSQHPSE
The assay is described as follows: Inhibition of kinase-Regnase-1 binding by the compounds (AlphaScreen), IKKβ. The note with it: Table 14; binding between IKKβ and Regnase-1; read-out: Binding inhibition FL_Reg1, 50% inhibition concentration (IKKβ). The procedure:
(§1) As a target protein, a construct having a FLAG tag on the N-terminal side and a recognition sequence for biotin ligase BirA on the C-terminal side of the full-length sequence of human Regnase-1 (UniProt ID: Q5D1E8) was prepared (FL_Reg1). The above-mentioned Regnase-1 was expressed in mammalian Expi293 cells, purified with FLAG M2 agarose, and isolated by gel filtration chromatography. When biotinylation was required, methods from nonpatent documents (BMC biotechnology, 2008,8,41; and Protein Science, 1999,8,921-929) were used.
(§2) After mixing 2.5 nM of the above-mentioned Regnase-1 and the compound, 2.5 nM of IKKβ or TBK1 was added and reacted at room temperature for two hours. Then, Anti FLAG AlphaLISA Acceptor Beads (manufactured by PerkinElmer) and Glutathione-coated AlphaScreen Donor Beads (manufactured by PerkinElmer) were added, and excited luminescence was measured using En Vision (manufactured by PerkinElmer). As the results, the inhibition rate from the signals obtained when adding the compound at each concentration were calculated, by defining the signal obtained with Regnase-1 alone to be 100% inhibition rate, and the signal obtained when the same amount of solvent (DMSO) is added in place of the compound as 0% inhibition rate. The 50% inhibition concentration (μM) was calculated from the obtained dose response curve (Table 12).
(Bead proximity is the source of the signal in Alpha formats.)

The target in assay [2] is T2, FL_Reg1 (full-length human Regnase-1) phosphorylation by TBK1 (Homo sapiens, UniProt Q5D1E8).
T2 construct: made in house; host or cells: Expi293 cells
T2 sequence (Q5D1E8 1-599): T1 sequence (Q5D1E8 1-599)
Kind of assay: Regnase-1 phosphorylation inhibition by compounds (AlphaScreen), TBK1, full-length Regnase-1. It is filed as biochemical. The note with it: Table 13; phosphorylation by TBK1; read-out: Phosphorylation inhibition FL_Reg1, 50% inhibition concentration (TBK1). An excerpt:
(§3) The full-length sequence of human Regnase-1 (UniProt ID: Q5D1E8) was used to prepare a construct having a FLAG tag on the N-terminal side and a recognition sequence for biotin ligase BirA on the C-terminal side (FL_Reg1) as a target protein. The above-mentioned Regnase-1 was expressed in mammalian Expi293 cells, purified with FLAG M2 agarose, and isolated by gel filtration chromatography. When biotinylation was required, methods from nonpatent documents (BMC biotechnology, 2008,8,41; and Protein Science, 1999,8,921-929) were used. […]
(§4) Using Kinase assay buffer III (manufactured by SignalChem) supplemented with 2 mM DTT, 100 μM sodium vanadate, and 2 mM manganese chloride, kinase (IKKβ (manufactured by SignalChem) or TBK1 (manufactured by SignalChem)) and Regnase-1 were reacted in the presence of 10 μM ATP at room temperature for 2 hours to perform a phosphorylation reaction.
(§5) Phosphorylated Regnase-1 was detected by the AlphaScreen system. After each of the above-mentioned phosphorylated Regnase-1 antibodies was added and reacted at room temperature for one hour, anti-FLAG AlphaLISA Acceptor Beads (manufactured by PerkinElmer) and Protein A AlphaScreen Donor Beads (manufactured by PerkinElmer) were added, and EnVision (manufactured by PerkinElmer) was used to measure the excited luminescence. As a result, phosphorylated Regnase-1 produced by the phosphorylation reaction by kinase was specifically detected, and signals were confirmed to be enhanced in a manner dependent on Regnase-1 and kinase concentrations (FIG. 24).
(§6) After mixing 2 nM of the above-mentioned Regnase-1 and the compound, phosphorylated Regnase-1 produced by the phosphorylation reaction was detected by the AlphaScreen system. As the results, the inhibition rate was calculated from the signals obtained when adding the compound at each concentration, by defining the signal obtained with Regnase-1 alone to be 100% inhibition rate, and the signal obtained when the same amount of solvent (DMSO) is added in place of the compound as 0% inhibition rate. The 50% inhibition concentration (μM) was calculated from the obtained dose response curve (Table 11).

Assay [3] has as its target T3, FL_Reg1 (full-length human Regnase-1) phosphorylation by IKKβ (Homo sapiens, UniProt Q5D1E8).
T3 construct: made in house; host or cells: Expi293 cells
T3 sequence (Q5D1E8 1-599): T1 sequence (Q5D1E8 1-599)
The assay is described as follows: Regnase-1 phosphorylation inhibition by compounds (AlphaScreen), IKKβ, full-length Regnase-1. It counts as biochemical. The note with it: Table 14; phosphorylation by IKKβ; read-out: Phosphorylation inhibition FL_Reg1, 50% inhibition concentration (IKKβ).
From the text: as §3, §4, §5, §6

The target in assay [4] is T4, binding between TBK1 and full-length Regnase-1 (FL_Reg1) (Homo sapiens, UniProt Q5D1E8).
T4 construct: made in house; host or cells: Expi293 cells
T4 sequence (Q5D1E8 1-599): T1 sequence (Q5D1E8 1-599)
Kind of assay: Inhibition of kinase-Regnase-1 binding by the compounds (AlphaScreen), TBK1. The note with it: Table 13; binding between TBK1 and Regnase-1; read-out: Binding inhibition FL_Reg1, 50% inhibition concentration (TBK1). The procedure: as §1, §2

Assay [5] has as its target T5, ΔCTD_Reg1 (amino acids 1 to 546 of human Regnase-1) phosphorylation by IKKβ (Homo sapiens, UniProt Q5D1E8).
T5 construct: made in house; host or cells: Expi293 cells
T5 sequence (Q5D1E8 1-546): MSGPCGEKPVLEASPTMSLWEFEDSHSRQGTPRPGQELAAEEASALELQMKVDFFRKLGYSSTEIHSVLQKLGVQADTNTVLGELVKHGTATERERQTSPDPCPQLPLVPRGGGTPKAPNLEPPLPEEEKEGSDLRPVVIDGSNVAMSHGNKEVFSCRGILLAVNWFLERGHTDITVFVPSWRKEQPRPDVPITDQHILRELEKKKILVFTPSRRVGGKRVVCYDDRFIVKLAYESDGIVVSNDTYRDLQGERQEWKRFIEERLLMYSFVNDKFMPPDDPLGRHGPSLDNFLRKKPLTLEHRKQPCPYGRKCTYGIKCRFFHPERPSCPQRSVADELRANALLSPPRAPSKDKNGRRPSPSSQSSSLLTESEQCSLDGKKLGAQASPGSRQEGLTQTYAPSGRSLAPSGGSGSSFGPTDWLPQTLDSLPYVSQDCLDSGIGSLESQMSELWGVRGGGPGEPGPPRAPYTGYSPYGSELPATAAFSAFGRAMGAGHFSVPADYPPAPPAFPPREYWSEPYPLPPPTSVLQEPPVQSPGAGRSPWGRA
Kind of assay: Regnase-1 phosphorylation inhibition by compounds (AlphaScreen), IKKβ, CTD-deficient Regnase-1. It is filed as biochemical. The note with it: Table 14; phosphorylation by IKKβ; read-out: Phosphorylation inhibition ΔCTD_Reg1, 50% inhibition concentration (IKKβ). The procedure:
Among the full-length human Regnase-1 sequence, the 1st to 546th amino acid sequence was prepared and made into a construct having a FLAG tag on the N-terminal side and a biotin ligase BirA recognition sequence on the C-terminal side (herein, a Regnase-1 lacking the C-terminal domain of Regnase-1 (amino acids 547 to 599 in the case of SEQ ID NO: 2) is referred to as “ΔCTD_Reg1”. “ΔCTD_Reg1” is different from “Regnase-1ΔCTD”, which is a C-terminal domain deletion variant resulting from a frameshift mutation caused by a 1 bp deletion at codon 517, as prepared in Example 13). In addition, the sequence from amino acids 301 to 599 of the full-length human Regnase-1 sequence was designated as C-terminal Regnase-1, and a construct having a FLAG tag on the N-terminal side and a recognition sequence for biotin ligase BirA on the C-terminal side was prepared (Reg1_301-599). The above-mentioned Regnase-1 was expressed in mammalian Expi293 cells, purified with FLAG M2 agarose, and isolated by gel filtration chromatography. When biotinylation was required, methods of nonpatent documents (BMC biotechnology, 2008,8,41; and Protein Science, 1999,8,921-929) were used.
as §4, §5, §6

Residues, ends and D or L forms follow the SMILES beside them.

As for `CC[C@H](C)[C@@H]1NC(=O)[C@H](CCCCN)NC(=O)[C@H](Cc2ccc(O)cc2)NC(=O)[C@H](Cc2c[nH]c3ccccc23)NC(=O)[C@H](CO)NC(=O)[C@H](CO)NC(=O)[C@H](Cc2c[nH]cn2)NC(=O)CNC(=O)[C@H](Cc2ccc(O)cc2)NC(=O)[C@H]([C@@H](C)O)NC(=O)[C@@H](C)N(C)C(=O)C[C@@H](C(=O)N2CCCC2)NC(=O)[C@H](Cc2c[nH]c3ccccc23)NC1=O` [PP9] (HELM PEPTIDE1{[C[C@H](C(=O)[*:2])N(C)[*:1]].T.Y.G.H.S.S.W.Y.K.I.W.D.[C1CCN([*:1])C1]}$PEPTIDE1,PEPTIDE1,1:R1-13:R3$$$V2.0), the IC50 in assay [1] came to 10.6 µM; in assay [2], 4.2 µM; in assay [3] it was 2.7 µM; in assay [4], 8.3 µM.

For `CC[C@H](C)[C@@H]1NC(=O)[C@H](Cc2c[nH]c3ccccc23)NC(=O)[C@H](C)N(C)C(=O)C[C@@H](C(=O)N2CCCC2)NC(=O)[C@H](CCC(=O)O)NC(=O)[C@H](CC(N)=O)NC(=O)[C@H](Cc2c[nH]c3ccccc23)NC(=O)[C@H](Cc2ccccc2)NC(=O)[C@H](CC(=O)O)NC(=O)[C@H](Cc2c[nH]c3ccccc23)NC1=O` [PP24] (HELM PEPTIDE1{[meA].W.I.W.D.F.W.N.E.D.[C1CCN([*:1])C1]}$PEPTIDE1,PEPTIDE1,1:R1-10:R3$$$V2.0), the IC50 in assay [1] was 8.8 µM; in assay [2], 35.7 µM; in assay [3] it was 5.3 µM; in assay [4] it was 7.7 µM.

As for `C[C@@H]1C(=O)N[C@@H](CCC(=O)O)C(=O)N[C@@H](CC(=O)O)C(=O)N[C@@H]([C@@H](C)O)C(=O)N2CCC[C@H]2C(=O)N[C@@H](CCC(=O)O)C(=O)N[C@@H](CC(=O)O)C(=O)N[C@@H](CC(=O)O)C(=O)N[C@@H](Cc2c[nH]cn2)C(=O)N[C@H](C(=O)N2CCCC2)CC(=O)N1C` [PP25] (HELM PEPTIDE1{[C[C@H](C(=O)[*:2])N(C)[*:1]].E.D.T.P.E.D.D.H.D.[C1CCN([*:1])C1]}$PEPTIDE1,PEPTIDE1,1:R1-10:R3$$$V2.0), the IC50 in assay [1] is more than 62.1 µM; in assay [2] it was 18.9 µM; in assay [3], 27 µM; in assay [5] it was 47.7 µM; in assay [4], 13.1 µM.

(Values after patent US20250018014A1, “METHOD FOR TREATING AND/OR PREVENTING REGNASE-1-RELATED DISEASE” (OSAKA UNIVERSITY, priority 2018, published 2025).)
